Consider three compounds from patent publication US20200360391A1, “Medicinal Composition for Treating Intractable Heart Disease” (Osaka University, priority 2016, published 2020).

In data set [1] the test system is spontaneous dilated cardiomyopathy (J2N-k) hamster model. Put plainly: Spontaneous dilated cardiomyopathy (J2N-k) hamster model, 8-week administration from 20 weeks of age (Tests 1-3): echocardiography, body weight. The procedure:
The doses of pharmaceutical products were determined based on the no-observed-adverse-effect levels in a long-term toxicity study using rats. δ-Glycan-deficient spontaneous dilated cardiomyopathy (J2N-k) male hamsters (Japan SLC, Inc.) were delivered at 18 weeks of age. After a 2-week quarantine/acclimation, echocardiography was performed.
Each of the pharmaceutical products (A to K and O) was individually administered twice daily (at an interval of 8 hours or more) by oral gavage, and echocardiography was performed after 4 and 8 weeks (before dissection). Differences from the value before the start of administration (at the time of grouping) (amount of change: Δ) in each group were examined, and the cardiac function (EF value, FS %, etc.) was compared with that in the vehicle group (Group 1). Moreover, the heart was removed […] after the start of administration, and electron microscopy and RNA protein measurement were performed. Specimens for immunopathology were also collected and evaluated.
Each pharmaceutical product was individually suspended in 0.5% CMC-Na (sodium carboxymethylcellulose; Wako Pure Chemical Industries, Ltd.) before use, and administered. […] To Group 1 (control), 0.5% CNC-Na (vehicle) was administered.
Each pharmaceutical product was individually suspended in 0.5% CMC-Na (sodium carboxymethylcellulose; Wako Pure Chemical Industries, Ltd.) before use, and administered. Test substance G was suspended in distilled water before use, and administered.
Reason the doses were set (assuming that the adult body weight was 60 kg, the same amounts as the maximum clinical doses were set) • 1) The clinical dose of C (ozagrel; OZ) was 200 mg twice per day. The dose was thus set to 3.3 mg/kg twice per day. • 2) The clinical dose of D (cilostazol; CS) was 100 mg twice per day. The dose was thus set to 1.7 mg/kg twice per day. • 3) The clinical dose of E (pirfenidone; PF) was 600 mg three times per day, i.e., 1800 mg/day in total. The dose was thus set to 15 mg/kg twice per day. • 4) The clinical dose of G (nintedanib sulfonate; OB) was 150 mg twice per day. The dose was thus set to 2.5 mg/kg twice per day. • 5) The clinical dose of P (carvedilol; CV) was 10 mg twice per day. The dose was thus set to 0.17 mg/kg twice per day. • 6) Preparation 2 (PLGA⋅MS preparation of camostat; B⋅MS): the clinical dose of active substance camostat was 200 mg three times per day, i.e., 600 mg/day in total; thus, intermittent subcutaneous administration at a daily dose of 10 mg/kg once every 4 weeks, twice in total was set. The dose was 1/28 of the total oral dose amount.
The dose volume in oral administration was 5 mL/kg (the amount of liquid to be administered to each animal was calculated based on the most recent body weight), and administered by oral gavage using a polypropylene disposable syringe and a rat stomach tube.
The administration period of each pharmaceutical product was 8 weeks.

For data set [2] the following is noted: cited from earlier work; for Cases with side effects (including laboratory test value abnormality): share of cases evaluated for safety.
Data set [3] concerns spontaneous dilated cardiomyopathy J2N-k baby hamsters. Put plainly: J2N-k baby hamsters (Test 4): administration alone or in combination, echocardiography, body weight. The data set is classed as in vivo, hamster. Particulars: for % FS / EF (%) / value of change in E.F. compared with E.F. at 0 W / value of change in F.S. compared with F.S. at 0 W: Test 4, dose O 0.17, C 3.3, E 15, orally twice daily, mean ± S.D. The procedure: δ-Glycan-deficient spontaneous dilated cardiomyopathy (J2N-k) male hamsters (Japan SLC, Inc.) were delivered at 4 weeks of age. After a 1-week quarantine/acclimation, echocardiography was performed. The hamsters were grouped by stratified random assignment based on the EF values and the body weights so that each administration group was equalized.
Each test substance was individually administered twice daily (at an interval of 8 hours or more) by oral gavage, and echocardiography was performed 4 and 8 weeks after the start of administration (before dissection). Differences from the value before the start of administration (at the time of grouping) (amount of change: A) in each group were examined, and the cardiac function (EF value, FS %, etc.) was compared with that in the vehicle group (Group 1).
The doses were set according to the dose-setting basis in Test 3, and similarly orally administered twice daily. Effects of administration of combinations of two or three of carvedilol, which is a β-blocker widely used clinically, and ozagrel and/or pirfenidone were examined.

Data set [4] concerns rats. Particulars: rats, cited from earlier work.
Setting [5] is: Test 2, p.o. b.i.d., NOAEL-based dose.
Setting [6] is: Test 4, p.o. b.i.d., clinical dose.
The mark [7] stands for this setting: Test 2, p.o. b.i.d., NOAEL-based dose, listed as lovastatin.

“Also recorded” adds a separate entry of the source. Where two headings read alike, the source gives them in different places. Marks after values point to notes of the source that are not given here.

As for `Cn1c(=O)c2[nH]cnc2n(C)c1=O` [Compound H, Theophylline], in data set [1] (Test 2, p.o. b.i.d.), the “LVIDd 4 W” value worked out at 7.0 mm, the “LVIDd 8 W” value turned out to be 7.3 mm, the “LVIDs 4 W” value was 5.9 ± mm and the “LVIDs 8 W” value came out at 6.3 mm. For the same compound, in data set [1] (setting [5]), the “% FS 4 W” value was “not significantly higher” and the “% FS value of change at 4 W compared with 0 W” value (from here on “% FS value of change at 4 W”) is on record as “not significantly higher”. In data set [1] (hamster, in vivo), the “Body weight 0 W” value is on record as 121.4 g. For the same compound, in data set [1] (hamster, in vivo, po), the “Body weight 1 W” value is listed as 120.2 g, the “Body weight 2 W” value is 120.2 g, the “Body weight 3 W” value worked out at 121.0 g and the “Body weight 4 W” value is on record as 122.4 g. Besides, in data set [1] (hamster, in vivo, po), the “Body weight 6 W” value is 122.6 g and the “Body weight 8 W” value was determined as 123.6 g. For the same compound, in data set [2] (human, in vivo), the “Headache (headache/heavy-headedness) cases” value is 2.56%, the “Nausea cases (cilostazol: nausea/vomiting)” value was 4.05% and the Palpitations cases is given as 1.17%. Also, the “Cases with side effects (including laboratory test value abnormality)” value in data set [2] is recorded as 9.05%.
In the case of `COc1ccccc1OCCNCC(O)COc1cccc2[nH]c3ccccc3c12` (centres unmarked) [Compound O, Carvedilol], in data set [1] (Test 3, clinical dose), the “Cardiac function (EF, FS %) actual measured value and/or amount of change compared with control, 8 W value” is listed as “significant cardiac function improvement effect” and the “Cardiac function (EF, FS %) actual measured value or change rate compared with control, 4 W value” is given as “significant cardiac function improvement effect”. In data set [1] (Test 3, clinical dose, summary), the “Cardiac function improvement effect” value is recorded as “cardiac function improvement effect was observed”. For the same compound, the “Minimal effective dose (screening 2)” value in data set [1] (mg/kg twice per day, oral preparation) is 0.17 mg/kg. The “Body weight 0 W” value in data set [3] (Test 4, at grouping) worked out at 71.5 g. Further, the “Action on decrease in left ventricular systolic function” value in data set [3] (Test 4, clinical doses p.o. b.i.d., 8 weeks) was “significant suppression action on a decrease in left ventricular systolic function; also recorded: action of significantly suppressing a decrease in left ventricular systolic function”. In data set [3] (setting [6]), the “Body weight 2 W” value amounted to 84.2 g, the “Body weight 4 W” value came to 92.6 g, the “Body weight 5 W” value is 97.8 g and the “Body weight 6 W” value is reported as 101.3 g. Besides, in data set [3] (setting [6]), the “Body weight 7 W” value stood at 104.0 g and the “Body weight 8 W” value amounted to 106.1 g. Besides, in data set [3] (0 W (start of administration)), the “% FS” value stood at 38.8 ± 3.0% and the “EF (%)” value came to 76.9 ± 3.4%. Besides, in data set [3] (4 W), the “% FS” value worked out at 34.4 ± 1.8%, the “EF (%)” value is listed as 71.7 ± 2.3%, the “value of change in E.F. compared with E.F. at 0 W” value is listed as <−5.2 ± 2.3> % and the “value of change in F.S. compared with F.S. at 0 W” value is <−4.4 ± 2.1> %. For the same compound, in data set [3] (8 W), the “% FS” value is reported as 30.1 ± 1.3%, the “EF (%)” value is reported as 65.8 ± 1.9%, the “value of change in E.F. compared with E.F. at 0 W” value is <−11.1 ± 3.8> % and the “value of change in F.S. compared with F.S. at 0 W” value is <−8.7 ± 3.2> %.
For the compound Lovastatin calcium [Compound J], the “Body weight lower than that in the control group” value in data set [1] (Test 2, 8 weeks after start of administration, 5 mg/kg b.i.d.) was “about 10%”. In data set [1] (Test 2, at grouping), the “% FS 0 W” value was 17 ± 2%, the “Body weight 0 W” value is on record as 122.9 g, the “EF 0 W” value came out at 43 ± 3% and the “LVIDd 0 W” value is recorded as 6.7 mm. Further, in data set [1] (Test 2, at grouping), the “LVIDs 0 W” value is on record as 5.6 mm. Also, in data set [1] (Test 2, p.o. b.i.d.), the “LVIDd 4 W” value amounted to 7.1 mm, the “LVIDd 8 W” value is 7.4 mm, the “LVIDs 4 W” value came to 6.0 mm and the “LVIDs 8 W” value was 6.3 ± mm. For the same compound, in data set [1] (setting [5]), the “% FS 4 W” value is given as 15 ± 1%, the “% FS 8 W” value was determined as 14 ± 1%, the “% FS value of change at 4 W” value is listed as <−2 ± 1> % and the “% FS value of change at 8 W compared with 0 W” value is given as <−3 ± 1> %. Further, in data set [1] (setting [5]), the “Body weight 3 W” value was 120.8 g, the “Body weight 5 W” value is 120.3 * g, the “Body weight 7 W” value is on record as 118.7 ** g and the “Body weight 8 W” value is given as 118.0 * g. Also, in data set [1] (setting [5]), the “EF 4 W” value is recorded as 39 ± 2%, the “EF 8 W” value came to 37 ± 2%, the “EF value of change at 4 W compared with 0 W” value is <−4 ± 1> % and the “EF value of change at 8 W compared with 0 W” value was <−6 ± 3> %. Further, in data set [1] (setting [7]), the “% FS 4 W” value is given as “not significantly higher” and the “% FS value of change at 4 W” value was “significantly higher”. For the same compound, the “LVIDs 8 W” value in data set [1] (Test 2, p.o. b.i.d., listed as lovastatin) is reported as “significantly lower”. Besides, the No-observed-adverse-effect level in data set [4] (1 month) is reported as 15 mg/kg. For the same compound, in data set [4] (6 months), the No-observed-adverse-effect level is reported as 2 mg/kg. The No-observed-adverse-effect level in data set [4] (13 weeks / 3 months) was 10 mg/kg. For the same compound, in data set [2] (human, in vivo), the “CK (CPK) elevation cases” value was 1.6%, the “Elevated AST (GOT) and/or ALT (GPT) / liver enzyme cases” value is 1.7% and the Muscle pain cases is given as 3.2%. In data set [2], the “Cases with side effects (including laboratory test value abnormality)” value is 18.8%.
